In brackets after ≈: the same amount, converted by molar mass. Read-outs that look alike come from different tables or passages of the source.
Assays:
[1] = MTT cytotoxicity / synergy assay, 72 h, MCF-7; format: cell-based, human; settings: human, MCF-7 cells
Method: Stock solutions of the tested compounds were first prepared in DMSO at 200-fold the intended final concentration. […] The cells were treated for 72 h under the same conditions.
Following treatment, 25 μL of MTT solution was added to each well, and the plates were incubated for 2 h at 37 °C. […] IC₅₀ values, indicating the concentration required to reduce cell viability by 50% compared to untreated controls (set as 100% viability), were calculated using GraphPad Prism 9 software (GraphPad Software, San Diego, CA, USA). All data from this preliminary cytotoxic assay were analyzed by ANOVA followed by Tukey’s post hoc test for multiple comparisons, with significance set at p < 0.05. A similar statistical approach was used for the rest of the experimental work presented in this study.

4T1 tumors = test: 4T1 breast cancer in BALB/c mice; format: in vivo; settings: GLIM alone 4 mg/kg i.p.
Method: Six- to eight-week-old female BALB/c mice (Charles River Breeding Laboratories, Wilmington, MA, USA) were bred at the Maria Sklodowska-Curie National Research Institute of Oncology, Gliwice Branch (Gliwice, Poland), under a HEPA-filtered Allentown's IVC System (Allentown Caging Equipment Co., Allentown, NJ, USA). All efforts to minimize animal suffering were made by qualified personnel. This study was carried out in strict accordance with the recommendations in the Guide for the Care and Use of Laboratory Animals of the National Institutes of Health. The protocols were approved by the Committee on the Ethics of Animal Experiments of the Local Ethics Commission (Medical University of […], Poland; Permit No. 22/2024). BALB/c mice were injected subcutaneously in the lower flank with 2 × 10^5 4T1 cells suspended in 100 μL PBS. […] Each treatment was administered a total of five times.

[2] = MTT cytotoxicity, range over the cell panel; format: cell-based; settings: human; range over the tested cell lines; read-out: cytotoxicity (IC50 range over cell lines), our study
Method: HMEC-1, an immortalized human microvascular endothelial cell line, was used as a model for normal cells.
(§1) The cancer cell lines were cultured in Dulbecco’s Modified Eagle’s Medium (DMEM; Sigma-Aldrich) supplemented with 10% FBS and 1% penicillin/streptomycin mixture (10,000 U/mL penicillin and 10 mg/mL streptomycin; Sigma-Aldrich) at 37 °C in a humidified atmosphere with 5% CO2.
(§2) For the MTT assay, exponentially growing cells were seeded into 96-well plates at a density of 5 × 10³ cells per well. After 24 h of incubation, the medium was replaced with 100 µL of fresh medium containing the tested compounds. After 72 h of treatment, cell viability was assessed using the MTT assay as described earlier. […] IC50 values were calculated using GraphPad Prism 9 software (GraphPad Software).

HSA = system: HSA; parameters: method as in Figure S2 [39–71]; settings: ref Figure S2 [39–71]; cited from earlier work
[3] = parameters: method as in Figure S2 [39–71]; settings: ref Figure S2 [39–71]; cited from earlier work
[4] = cited from earlier work
MCF-7 cells = settings: cited from earlier work
MC38 melanoma model = system: MC38 melanoma model; parameters: method as in PMID 36033393; settings: GLIM 5 mg/kg every 2 days, i.p.; cited from earlier work
MC38 model = system: MC38 model; parameters: method as in PMID 36033393; settings: GLIM 5 mg/kg every 2 days, i.p.; cited from earlier work
multiple cell lines = system: multiple cell lines; parameters: method as in Alkhalil et al. and others [10,11,16,26]; settings: range reported; ref Alkhalil et al. and others [10,11,16,26]; read-out: cytotoxicity (IC50 range over cell lines), literature; cited from earlier work
HuH7 cells = test: MTT cytotoxicity / synergy assay, 72 h, HuH7; settings: Homo sapiens, Huh-7, 72 h, read-out: IC50 Value in Specific Cell Line, HuH7
Method: The synergistic effects of drug combinations were studied in various cancer cell lines, including MCF-7 (human breast cancer), A549 (human lung cancer), U-87 MG (human malignant glioma), HepG2 (human liver cancer), and HUH7 (human liver cancer). HMEC-1, an immortalized human microvascular endothelial cell line, was used as a model for normal cells. All cell lines were purchased from ATCC (Rockville, MD, USA).
as §1, §2

CCC1=C(C)CN(C(=O)NCCc2ccc(S(=O)(=O)NC(=O)N[C@H]3CC[C@H](C)CC3)cc2)C1=O [GLIM, Glimepiride]
viability at 72 h ([1]; 0.05% Tween-80, read-out: MCF-7 viability with 0.05% Tween-80): 71.2% | viability at 72 h ([1]; before addition of 0.05% Tween-80, read-out: MCF-7 viability without Tween-80): 95.9% | body weight compared to controls (4T1 tumors): no significant change in body weight | tumor size compared to untreated controls (4T1 tumors): no reduction in tumor size | IC50 at 72 h [2]: 135 to 473 µM | nKa (global affinity constant, HSA) (HSA): 910000 M⁻¹ | solubility [3]: 12.2 µM (≈ 5.99 µg/mL) | protein-bound in plasma [4]: 99.4% | IC50 (MCF-7 cells; calculated by the authors from the results of Faridi et al., read-out: IC50 value, MCF-7): 79.8 µM | IC50 (MCF-7 cells; read-out: IC50, MCF-7): 50 µM | reduction of tumor mass (MC38 melanoma model): 57% | increase in CD8+ T cell numbers (MC38 model): < 10% | IC50 (multiple cell lines): 89.4 to 426 µM | IC50 (HuH7 cells): 476 ± 7 µM

Source: article PMC11855866 (International Journal of Molecular Sciences, 2025)
